{
  "source": "patent US7138361B2",
  "about": "“Herbicidal heterocycles” (E. I. du Pont de Nemours and Company, priority 2000, dated 2006)",
  "format_in_all_cases": "in vivo",
  "key": {"[1]": {"system": "corn (Zea mays)", "test": "Test B preemergence", "procedure,_shortened": "(§1)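 Post-treatment, species sat 13–15 days under greenhouse conditions before visual scoring against controls, 0 (no effect) through 100 (complete control). Application preemergence to sown seeds or postemergence at 1- to 4-leaf stage, using a non-phytotoxic solvent/surfactant formulation.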"}, "[2]": {"system": "crabgrass (Digitaria sanguinalis)", "test": "Test B preemergence", "procedure,_shortened": "as §1"}, "[3]": {"system": "pigweed (Amaranthus retroflexus)", "test": "Test B preemergence", "procedure,_shortened": "as §1"}, "[4]": {"system": "Surinam grass (Brachiaria decumbens)", "test": "Test B preemergence", "procedure,_shortened": "as §1"}, "[5]": {"system": "cocklebur (Xanthium strumarium)", "test": "Test B preemergence", "procedure,_shortened": "as §1"}, "[6]": {"system": "morning glory (Ipomoea hederacea)", "test": "Test B preemergence", "procedure,_shortened": "as §1"}, "[7]": {"system": "lambsquarters (Chenopodium album)", "test": "Test B preemergence", "procedure,_shortened": "as §1"}, "[8]": {"system": "rice (Oryza saliva)", "test": "Test B preemergence", "procedure,_shortened": "as §1"}, "[9]": {"system": "giant foxtail (Setaria faberii)", "test": "Test B preemergence", "procedure,_shortened": "as §1"}, "[10]": {"system": "corn (Zea mays)", "test": "Test C postemergence", "procedure,_shortened": "(§2)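 Seeds are planted and treated before emergence; for the postemergence test, plants at 1- to 4-leaf stage (2–18 cm) receive the same formulation, a solvent blend containing surfactant. Plants stay in the greenhouse 12–14 days, then response is scored visually from 0 (none) to 100 (complete control).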"}, "[11]": {"system": "crabgrass (Digitaria sanguinalis)", "test": "Test C postemergence", "procedure,_shortened": "as §2"}, "[12]": {"system": "bermudagrass (Cynodon dactylon)", "test": "Test C postemergence", "procedure,_shortened": "as §2"}, "[13]": {"system": "pigweed (Amaranthus retroflexus)", "test": "Test C postemergence", "procedure,_shortened": "as §2"}, "[14]": {"system": "Surinam grass (Brachiaria decumbens)", "test": "Test C postemergence", "procedure,_shortened": "as §2"}, "[15]": {"system": "cocklebur (Xanthium strumarium)", "test": "Test C postemergence", "procedure,_shortened": "as §2"}, "[16]": {"system": "kochia (Kochia scoparia)", "test": "Test C postemergence", "procedure,_shortened": "as §2"}, "[17]": {"system": "velvetleaf (Abutilon theophrasti)", "test": "Test C postemergence", "procedure,_shortened": "as §2"}, "[18]": {"system": "yellow nutsedge (Cyperus esculentus)", "test": "Test C postemergence", "procedure,_shortened": "as §2"}, "[19]": {"system": "goosegrass (Eleusine indica)", "test": "Test C postemergence", "procedure,_shortened": "as §2"}, "[20]": {"system": "morningglory (Ipomoea hederacea)", "test": "Test C postemergence", "procedure,_shortened": "as §2"}, "[21]": {"system": "soybean (Glycine max)", "test": "Test C postemergence", "procedure,_shortened": "as §2"}, "[22]": {"system": "giant foxtail (Setaria faberii)", "test": "Test C postemergence", "procedure,_shortened": "as §2"}, "[23]": {"system": "Nightshade", "test": "Test C preemergence", "conditions": "Rate 500 g/ha, visual evaluation after 12 to 14 days"}, "[24]": {"conditions": "Preemergence, Rate 500 g/ha, scale 0 to 100, 0 no effect, 100 complete control"}, "[25]": {"conditions": "preemergence, Rate 125 g/ha, scale of 0 to 100 where 0 is no effect and 100 is complete control, 13 to 15 days"}, "[26]": {"conditions": "Rate 250 g/ha, scale 0 to 100 (0 no effect, 100 complete control)"}, "[27]": {"conditions": "Rate 500 g/ha, scale 0 to 100 (0 no effect, 100 complete control)"}, "[28]": {"conditions": "Rate 125 g/ha, scale 0 to 100, 0 no effect, 100 complete control"}},
  "data": [
    {"smiles": "CCC(C)c1ccn(C2CCN(c3ccc(Cl)c(OC)c3)C2=O)n1", "note": "(centres unmarked) [Compound 119]", "values": [
      {"measurement": "Plant response rating, Corn", "setting": "[1]; [24]", "value": 40},
      {"measurement": "Plant response rating, Corn", "setting": "[1]; [25]", "value": 0},
      {"measurement": "Plant response rating, Crabgrass", "setting": "[2]; [24]", "value": 100},
      {"measurement": "Plant response rating, Crabgrass", "setting": "[2]; [25]", "value": 100},
      {"measurement": "Plant response rating, Pigweed", "setting": "[3]; [24]", "value": 100},
      {"measurement": "Plant response rating, Pigweed", "setting": "[3]; [25]", "value": 100},
      {"measurement": "Plant response rating, Surinam grass", "setting": "[4]; [24]", "value": 100},
      {"measurement": "Plant response rating, Surinam grass", "setting": "[4]; [25]", "value": 100},
      {"measurement": "Plant response rating, Cocklebur", "setting": "[5]; [24]", "value": 30},
      {"measurement": "Plant response rating, Cocklebur", "setting": "[5]; [25]", "value": 30},
      {"measurement": "Plant response rating, Morningglory", "setting": "[6]; [24]", "value": 70},
      {"measurement": "Plant response rating, Morningglory", "setting": "[6]; [25]", "value": 50},
      {"measurement": "Plant response rating, Lambsquarters", "setting": "[7]; [24]", "value": 100},
      {"measurement": "Plant response rating, Lambsquarters", "setting": "[7]; [25]", "value": 100},
      {"measurement": "Plant response rating, Rice", "setting": "[8]; [24]", "value": 20},
      {"measurement": "Plant response rating, Rice", "setting": "[8]; [25]", "value": 10},
      {"measurement": "Plant response rating, Foxtail, Giant", "setting": "[9]; [24]", "value": 100},
      {"measurement": "Plant response rating, Foxtail, Giant", "setting": "[9]; [25]", "value": 100},
      {"measurement": "Plant response rating, Corn", "setting": "[10]; Rate 62 g/ha, scale 0 to 100", "value": 20},
      {"measurement": "Plant response rating, Corn", "setting": "[10]; [26]", "value": 20},
      {"measurement": "Plant response rating, Corn", "setting": "[10]; [27]", "value": 50},
      {"measurement": "Plant response rating, Corn", "setting": "[10]; scale 0 to 100", "value": 20},
      {"measurement": "Plant response rating, Crabgrass", "setting": "[11]; Rate 62 g/ha, scale 0 to 100", "value": 30},
      {"measurement": "Plant response rating, Crabgrass", "setting": "[11]; [26]", "value": 30},
      {"measurement": "Plant response rating, Crabgrass", "setting": "[11]; [27]", "value": 60},
      {"measurement": "Plant response rating, Bermudagrass", "setting": "[12]; Rate 62 g/ha, scale 0 to 100", "value": 0},
      {"measurement": "Plant response rating, Bermudagrass", "setting": "[12]; [28]", "value": 0},
      {"measurement": "Plant response rating, Bermudagrass", "setting": "[12]; [26]", "value": 0},
      {"measurement": "Plant response rating, Bermudagrass", "setting": "[12]; [27]", "value": 0},
      {"measurement": "Plant response rating, Pigweed", "setting": "[13]; Rate 62 g/ha, scale 0 to 100", "value": 40},
      {"measurement": "Plant response rating, Pigweed", "setting": "[13]; [26]", "value": 90},
      {"measurement": "Plant response rating, Surinam grass", "setting": "[14]; Rate 62 g/ha, scale 0 to 100", "value": 0},
      {"measurement": "Plant response rating, Surinam grass", "setting": "[14]; [28]", "value": 0},
      {"measurement": "Plant response rating, Surinam grass", "setting": "[14]; [26]", "value": 0},
      {"measurement": "Plant response rating, Surinam grass", "setting": "[14]; [27]", "value": 20},
      {"measurement": "Plant response rating, Cocklebur", "setting": "[15]; Rate 62 g/ha, scale 0 to 100", "value": 50},
      {"measurement": "Plant response rating, Cocklebur", "setting": "[15]; [26]", "value": 70},
      {"measurement": "Plant response rating, Kochia", "setting": "[16]; Rate 62 g/ha, scale 0 to 100", "value": 60},
      {"measurement": "Plant response rating, Kochia", "setting": "[16]; [26]", "value": 90},
      {"measurement": "Plant response rating, Kochia", "setting": "[16]; [27]", "value": 90},
      {"measurement": "Plant response rating, Velvetleaf", "setting": "[17]; Rate 62 g/ha, scale 0 to 100", "value": 0},
      {"measurement": "Plant response rating, Velvetleaf", "setting": "[17]; [26]", "value": 10},
      {"measurement": "Plant response rating, Velvetleaf", "setting": "[17]; [27]", "value": 20},
      {"measurement": "Plant response rating, Velvetleaf", "setting": "[17]; scale 0 to 100", "value": 0},
      {"measurement": "Plant response rating, Nutsedge", "setting": "[18]; Rate 62 g/ha, scale 0 to 100", "value": 0},
      {"measurement": "Plant response rating, Nutsedge", "setting": "[18]; [26]", "value": 0},
      {"measurement": "Plant response rating, Nutsedge", "setting": "[18]; [27]", "value": 0},
      {"measurement": "Plant response rating, Goosegrass", "setting": "[19]; Rate 62 g/ha, scale 0 to 100", "value": 0},
      {"measurement": "Plant response rating, Goosegrass", "setting": "[19]; [26]", "value": 0},
      {"measurement": "Plant response rating, Goosegrass", "setting": "[19]; [27]", "value": 30},
      {"measurement": "Plant response rating, Morningglory", "setting": "[20]; Rate 62 g/ha, scale 0 to 100", "value": 80},
      {"measurement": "Plant response rating, Morningglory", "setting": "[20]; [26]", "value": 100},
      {"measurement": "Plant response rating, Soybean", "setting": "[21]; Rate 62 g/ha, scale 0 to 100", "value": 40},
      {"measurement": "Plant response rating, Soybean", "setting": "[21]; [26]", "value": 80},
      {"measurement": "Plant response rating, Soybean", "setting": "[21]; [27]", "value": 90},
      {"measurement": "Plant response rating, Foxtail, Giant", "setting": "[22]; Rate 62 g/ha, scale 0 to 100", "value": 0},
      {"measurement": "Plant response rating, Foxtail, Giant", "setting": "[22]; [26]", "value": 0},
      {"measurement": "Plant response rating, Foxtail, Giant", "setting": "[22]; [27]", "value": 80},
      {"measurement": "Plant response rating (0 to 100), Nightshade", "setting": "[23]", "value": 100}
    ]}
  ]
}
